Results reported in patent US20190327965A1, “AGENTS AND METHODS FOR TREATMENT OF PATHOGENS” (Hexima Limited, priority 2014, published 2019).
Read-outs that look alike come from different tables or passages of the source. Bridge positions count the residues as written; N and C are the ends. Peptide text beside a SMILES is read from it.

Experiments:
Saccharomyces cerevisiae = experiment: Growth inhibition by hairpin peptide alone, Saccharomyces cerevisiae; format: cell-based; conditions: hairpin peptide on its own
Excerpt: Some α-hairpinin and β-hairpin peptides show efficacy on their own against pathogens at a concentration higher than the concentration used in a combination with a plant defensin.

[1] = tested on: Colletotrichum graminicola
[2] = tested on: Fusarium oxysporum f. sp. vasinfectum (Fov); format: cell-based; design: relative uptake of SYTOX green: reference not given here
[3] = tested on: Fusarium graminearum (Fgr); format: cell-based; design: relative uptake of SYTOX green: reference not given here

Row | Compound | Permeability index [2] | relative uptake of SYTOX green [2] | Permeability index [3] | relative uptake of SYTOX green [3] | other results
1 | CSCC[C@@H]1NC(=O)[C@@H]2CSSC[C@H](NC(=O)[C@H](CCC(=O)O)NC(=O)[C@H](CCCNC(=N)N)NC(=O)[C@H](CCCNC(=N)N)NC(=O)[C@@H](NC(=O)[C@H](CCC(=O)O)NC(=O)[C@H](CCCCN)NC(=O)CNC(=O)CNC(=O)CNC(=O)CNC(=O)[C@@H](N)Cc3c[nH]cn3)CSSC[C@@H](C(=O)N[C@@H](CCC(=O)O)C(=O)N[C@@H](Cc3c[nH]c4ccccc34)C(=O)N[C@@H](CCCNC(=N)N)C(=O)N[C@@H](CCCNC(=N)N)C(=O)N[C@@H](Cc3c[nH]cn3)C(=O)N[C@@H](CCC(=O)O)C(=O)O)NC(=O)[C@H](CCC(N)=O)NC(=O)[C@H](CCCNC(=N)N)NC1=O)C(=O)N[C@@H](CCCNC(=N)N)C(=O)NCC(=O)N[C@@H](Cc1ccc(O)cc1)C(=O)N[C@@H](CCCNC(=N)N)C(=O)N[C@@H](CC(=O)O)C(=O)N[C@@H](CCC(=O)O)C(=O)N1CCC[C@H]1C(=O)N[C@@H](Cc1c[nH]c3ccccc13)C(=O)N[C@@H](CCCNC(=N)N)C(=O)N[C@@H](CCCCN)C(=O)N[C@@H](CCC(N)=O)C(=O)N[C@@H](CCC(=O)O)C(=O)N2 [Osa_HPN_86B] (H-HGGGGKECRRECRGYRDEPWRKQECMRQCEWRRHE-OH; disulfide 8-29, 12-25 (inferred); N-terminus and C-terminus assumed) | – | – | – | – | IC50 (Saccharomyces cerevisiae): 8 µM; IC50 (Candida albicans): 9 µM; IC50 (Fusarium graminearum): 18 µM; IC50 [1]: 13 µM
2 | NaD1: Class II Solanaceous defensin from flowers of ornamental tobacco Nicotiana alata (Q8GTM0) (RECKTESNTFPGICITKPPCRKACISEKFTDGHCSKILRRCLCTKPC; UniProt Q8GTM0 26-72, looked up) | 1.0 | 300 | 1.0 | 320 | –
3 | HXL008: Class I permeabilizing defensin, mature protein SEQ ID NO:29 (KVCTKPSKFFKGLCGTDGACTTACRKEGLHSGYCQLKGFLNSVCVCRKHC; HXL008 Picramnia pentandra) | 0.8 | 225 | 0.9 | 300 | –
4 | HXL001: Class I permeabilizing defensin, mature protein SEQ ID NO:25 (RHCLSQSHRFKGLCMSSNNCANVCQTENFPGGECKAEGATRKCFCKKIC; HXL001 Zea Mays) | – | – | 0.9 | 300 | –
5 | RsAFP2: defensin compared in the Fgr permeabilization assay (QKLCQRPSGTWSGVCGNNNACKNQCIRLEKARHGSCNYVFPAHKCICYFPC; UniProt P30230 30-80, looked up) [reference compound] | – | – | 0.3 | 100 | –
6 | EcAMP1: α-hairpinin peptide, SEQ ID NO:36, produced recombinantly in E. coli (GSGRGSCRSQCMRRHEDEPWRVQECVSQCRRRRGGGD; EcAMP1 Echinochloa crus-galli) | – | – | – | – | IC50 (Saccharomyces cerevisiae): 8 µM; IC50 (Candida albicans; read-out: IC50 C. alb): 8 µM; IC50 (Fusarium graminearum; read-out: IC50 Fgr): 7 µM; IC50 ([1]; read-out: IC50 Cgr): 20 µM
7 | CC(C)[C@@H]1NC(=O)[C@@H]2CSSC[C@H](NC(=O)[C@H](CCC(N)=O)NC(=O)[C@H](CCCCN)NC(=O)[C@H](CCC(N)=O)NC(=O)[C@@H](NC(=O)[C@H](CCCNC(=N)N)NC(=O)[C@@H](N)CC(=O)O)CSSC[C@@H](C(=O)N[C@@H](CCCNC(=N)N)C(=O)N[C@@H](CCCNC(=N)N)C(=O)NCC(=O)N[C@@H](CCCNC(=N)N)C(=O)NCC(=O)N[C@@H](CO)C(=O)O)NC(=O)[C@H](CC(=O)O)NC(=O)[C@H](CCCNC(=N)N)NC1=O)C(=O)N[C@@H](CCC(N)=O)C(=O)N[C@@H](Cc1c[nH]cn1)C(=O)N[C@@H](Cc1ccc(O)cc1)C(=O)N[C@@H](CO)C(=O)N[C@@H](CC(=O)O)C(=O)N[C@@H](Cc1c[nH]c3ccccc13)C(=O)N[C@@H](CC(=O)O)C(=O)N[C@@H](CCCCN)C(=O)N[C@@H](CCCCN)C(=O)N[C@@H](CCC(N)=O)C(=O)N[C@@H](CCC(N)=O)C(=O)N2 [Sbi_HPN_104I] (H-DRCQKQCQHYSDWDKKQQCVRDCRRGRGS-OH; disulfide 3-23, 7-19 (inferred); N-terminus and C-terminus assumed) | – | – | – | – | IC50 (Saccharomyces cerevisiae): > 20 µM
8 | HXP4: synthetic (artificial) defensin variant, SEQ ID NO:8 (RECKTESHRFKGPCITKPPCRKACISEKFTDGHCSKILRRCLCTKPC; HXP4 protein) | 0.7 | 220 | 1.3 | 400 | –
9 | HXL013: Class I permeabilizing defensin, mature protein SEQ ID NO:30 (KDCLTRRHGFQGRCLFDRQCAHVCRSDGFIGGQCRGPLRKCFCSRPC; HXL013 Glycine max) | – | – | 1.4 | 450 | –
10 | HXL004: Class I permeabilizing defensin, mature protein SEQ ID NO:27 (RTCESQSHRFKGLCFSRSNCASVCHTEGFNGGHCRGFRRRCFCTRHC; HXL004 Nicotiana benthamiana) | – | – | 1.6 | 500 | –
11 | Hordothionin [reference compound] | – | – | 0.4 | 120 | –
12 | HXL007: permeabilizing defensin, mature protein SEQ ID NO:28 (RTCESLADTYRGPCFTDGSCDDHCKNKEHLISGRCRNDFRCWCTRNC; HXL007 Cyamopsis tetragonoloba) | 1.2 | 350 | – | – | –
13 | C[C@@H](O)[C@@H]1NC(=O)[C@H](CCC(N)=O)NC(=O)[C@@H]2CSSC[C@H](NC(=O)[C@H](CCC(N)=O)NC(=O)[C@H](CCCNC(=N)N)NC(=O)[C@H](CCC(N)=O)NC(=O)[C@H](CCCNC(=N)N)NC(=O)[C@H](CCC(=O)O)NC(=O)[C@@H]3CCCN3C(=O)[C@H](CO)NC(=O)[C@H](CCC(N)=O)NC(=O)[C@H](CCC(=O)O)NC(=O)[C@H](CCC(N)=O)NC1=O)C(=O)N[C@@H](CCC(N)=O)C(=O)N[C@@H](CCC(N)=O)C(=O)N[C@@H](CCCNC(=N)N)C(=O)N[C@H](C(=O)N[C@@H](CCC(=O)O)C(=O)N[C@@H](CCCNC(=N)N)C(=O)N[C@@H](CCC(N)=O)C(=O)N[C@@H](Cc1ccc(O)cc1)C(=O)N[C@@H](CCCCN)C(=O)N[C@@H](CCC(=O)O)C(=O)O)CSSC[C@H](NC(=O)[C@H](CCCNC(=N)N)NC(=O)[C@H](Cc1c[nH]cn1)NC(=O)[C@H](Cc1ccc(O)cc1)NC(=O)[C@H](CCC(N)=O)NC(=O)[C@H](CCC(N)=O)NC(=O)[C@H](CCC(N)=O)NC(=O)[C@@H]1CCCN1C(=O)[C@@H](N)CC(=O)O)C(=O)N[C@@H](CCC(N)=O)C(=O)N[C@@H](CCCNC(=N)N)C(=O)N[C@@H](CCCNC(=N)N)C(=O)N2 [Cil_HPN_14F] (H-DPQQQYHRCQRRCQTQEQSPERQRQCQQRCERQYKE-OH; disulfide 9-30, 13-26 (inferred); N-terminus and C-terminus assumed) | – | – | – | – | IC50 (Saccharomyces cerevisiae): 12 µM
14 | HXL002: permeabilizing defensin, mature protein SEQ ID NO:26 (RDCLSQSHKFKGACLSSSNCAAVCRTENFPDGECHTHNFARKCFCKRAC; HXL002 Triticum aestivum) | 0.9 | 260 | 1.0 | 320 | –
